Assay [1] relates to human neuroblastoma (SH-SY5Y). Nature of the assay: Apoptosis suppressing action caused by amyloid β in human neuroblastoma (Hoechst 33342 staining). The class given is cell-based. The method, then: The proportion of apoptotic cells in human neuroblastoma (SH-SY5Y; obtained from ATCC) in the presence of an autophagy activator was measured by the following test method to evaluate the apoptosis suppressing action of the autophagy activator.
In the following examples and comparative examples, tests were performed by adding amyloid β, which is known to induce cell death called apoptosis of nerve cells due to a decrease in autophagy, to each medium.
SH-SY5Y cells were prepared at a seeding density of 50000 cells/cm^2 and cultured for 24 hours in D-MEM medium/Ham's F-12 medium (manufactured by Sigma-Aldrich) to which 10% fetal bovine serum (manufactured by MP Biomedicals) was added. […]
Thereafter, an aqueous solution of 10 μM Hoechst 33342 (manufactured by Sigma-Aldrich) was added to each SH-SY5Y cell from which the medium was removed, and the cells were allowed to stand at room temperature (25° C.) for 10 minutes. After removing the solution, each SH-SY5Y cell was washed with phosphate buffer (PBS, manufactured by FUJIFILM Wako Pure Chemical Corporation), and with a fluorescence microscope, the number of cells showing strong apoptosis-like Hoechst fluorescence due to chromatin aggregation (Hoechst (+) cells) was counted. […] For each example, relative values were calculated when the proportion of apoptotic cells in Reference Example 4 was set to 1.00, and the results are shown in Table 7.

Another assay relates to mTOR gene. Nature of the assay: mTOR gene expression suppression effect in human senescent fibroblasts (quantitative real-time PCR). The class given is cell-based. The method, then:
Normal human fibroblasts (NB1RGB, RIKEN BRC Cell Bank) were cultured until confluent in D-MEM medium (manufactured by Sigma-Aldrich) to which 10% fetal bovine serum (manufactured by MP Biomedicals) was added. Thereafter, the cells were treated with 250 μM aqueous hydrogen peroxide for 2 hours, and cultured for 24 hours in D-MEM medium to which fresh 10% fetal bovine serum was added. The treatment with aqueous hydrogen peroxide and the cell culture operation were repeated three times, and the obtained fibroblasts were used as senescent fibroblasts.
The prepared senescent fibroblasts were prepared at a seeding density of 10000 cells/cm^2 and cultured for 24 hours in D-MEM medium (manufactured by Sigma-Aldrich) to which 10% fetal bovine serum (manufactured by MP Biomedicals) was added. Next, in Example 8, the inositol derivative A dissolved in purified water was added to the medium such that the final concentration of the inositol derivative A was 10-4% (V/V). […]
Then, using Nucleospin (registered trademark) RNA kit (manufactured by Takara Bio Inc.), RNA was extracted from senescent fibroblasts or normal human fibroblasts in each example, and cDNA was synthesized from the obtained RNA. Next, using this cDNA as a template, by quantitative real-time PCR, the expression level of mTOR gene was quantified using primers (manufactured by Takara Bio Inc.) specific to mTOR gene. […]

`O[C@H]1[C@H](O)[C@@H](O)[C@H](O)[C@@H](O)[C@H]1O` [Comparative Example 2, myo-inositol]: in assay [1] (SH-SY5Y cells with amyloid β, compared to Comparative Example 7 (purified water and amyloid β)), the “proportion of apoptotic cells, in words” value is listed as “almost the same”. The “Proportion of apoptotic cells” value in assay [1] (SH-SY5Y cells, 30 μM amyloid β present, 48 hours, 10^−3% (V/V) inositol or inositol derivative A, with the vitamin derivative of the example where added, relative value, Reference Example 4 (purified water, no amyloid β) = 1.00) is reported as 3.98. Further, the “Relative gene expression level mTOR” value in the assay on mTOR gene (24 hours, 10^−3% (V/V) inositol or inositol derivative A, with the vitamin derivative of the example where added, GAPDH-standardized, Comparative Example 3 (purified water) = 1.00) was determined as 0.95. Also, the “expression level of the mTOR gene, in words” value in the assay with mTOR gene (compared to Comparative Example 3 (purified water only)) is “almost the same”.

(Values after patent publication US20230364119A1, “AUTOPHAGY ACTIVATOR” (Resonac Corporation, priority 2020, published 2023).)
